{"source": "patent US5164406A", "about": "“Method for enhancing transdermal penetration and compositions useful therein” (priority 1989, dated 1992)", "key": {"[1]": {"settings": "general statement; cited from earlier work"}, "[2]": {"settings": "for Increase in penetration relative to control: multiple of average control determination", "description": "Polyoxyethylene stearyl ethers, 3 wt. %\nPolyoxypropylene fatty alcohol ethers, 3 wt. %\nDeionized water, 94 wt. %\nFurther, in all cases, unless otherwise noted, the tests were carried out at 37° C. and results were compared to penetration data for the same material in the oil/water emulsion base. Moreover, all percentages of composition components recited are, unless otherwise indicated, weight percent (wt. %) and are based upon the total weight of the composition.\nThe test method is carried out as follows:\nA. Prior to testing, rats are routinely acclimated to the laboratory environment for seven days and gross observations are made to ensure good health of the animals to be tested.\nB. Female Sprague Dawley rats (190-240 gm) are selected for testing and identified by cage label and ear tag number.\nC. Diffusion Cell Preparation.\n1. An O-ring is placed on a standard Franz Diffusion Cell. A stir bar is placed in the receptor compartment. Each cell is filled with approximately 4.5 ml sterile physiologic saline (receptor compartments are calibrated to contain 5.0 ml).\n2. The jacketed diffusion cells are maintained at 37° C.±1° (or alternatively desired temperature) using an external water bath and a circulating pump.\nD. Skin Section Preparation and Mounting\n1. Test animals are sacrificed by intraperitoneal injection of 0.4 ml/100 gm. body weight sodium pentobarital (1 gm/ml).\n2. The backs are lightly shaved using electric hair clippers.\n3. A section of skin, measuring approximately 8 cm long by 7 cm wide, is removed from the back of each rat using a No. 20 scalpel assuring that the skin section is free from subcutaneous fat.\n4. A piece of the skin section is mounted over an O-ring on the diffusion cell, epidermal side facing up. The donor compartment is placed on top of the skin section making a complete seal over the skin. A clamp is used to secure the skin section in place.\n5. Air bubbles that collect under the skin are removed by inverting the diffusion cell and tapping it gently. The receptor compartment is filled with sterile physiologic saline to 5.0 ml.\nE. Application of Test Materials\n1. Test and control materials are applied to the skin using s syringe or spatula. The material is spread evenly and completely over the exposed skin surface using the tip of the syringe/spatula.\n1. An HPLC carousel is loaded with microvials. Springs and inserts are placed into the microvials.\n2. Receptor compartments are sampled at desired time intervals using a microliter (μl) syringe. The sample (approximately 160 μl) is placed into the insert. The microvial is sealed with a plastic cap.\n3. When multiple sampling is required, the receptor compartment is replenished with sterile physiologic saline to maintain a 5.0 ml volume.\nSamples are analyzed using standard analytical techniques. The presence of test material in the samples is indicative of transdermal penetration."}, "[3]": {"settings": "cited from earlier work"}, "[4]": {"test": "Pig skin (in vitro) transdermal penetration", "format": "in vitro ADME, Yucatan miniature pig", "description": "The test procedure is as described for rat skin studies with the exception that excised pig skin samples from Yucatan miniature pigs are utilized.\nTo address this issue, in vitro skin penetration of tripelennamine (TPL) in 2 saturated aqueous solutions, was measured using pig skin in accordance with the Pig Skin (in vitro) procedure earlier outlined. One solution contained 0.5% IMI. The other solution served as an aqueous control (buffered with NaOH to the same pH as the IMI containing solution).\nSince all skin sections are dermatomed to 380 microns, h is a constant. In each composition of Table 5, the vehicle was saturated with the pharmacologic agent. Therefore, the \"leaving tendency\", or the thermodynamic activity of the pharmacologic agent in the vehicle, remained unchanged (K is the same for both compositions). this means that D must increase in order to explain the 3-fold increase in transdermal penetration. This is indicative of a true enhancement effect of topically applied IMI. The results of Table 5, substantiate that IMI acts as a true skin penetration enhancer. […] This may be one reason why use of a transdermal penetration enhancing amount of a selected imidazole or imidazole derivative of the present invention, in conjunction with a pharmacologically active agent whose transdermal penetration is capable of being enhanced, affords the advantageous enhancement of penetration achieved by the present invention."}, "[5]": {"test": "Human skin (in vitro) transdermal penetration", "format": "in vitro ADME", "settings": "Table 4", "from_the_text": "The test procedure is as described for rat skin studies with the exception that normal excised human skin samples obtained from breast reduction surgery are utilized.\nAs shown by the results of Table 4, imidazole enhanced xylometazoline penetration through human skin 5.3 fold."}, "[6]": {"settings": "B + 1% drug + 0.5% IMI, Table 3"}, "[7]": {"settings": "B + 5% TPL + 5% XYL, Table 3 Study I"}, "[8]": {"settings": "B + 5% TRP + 5% XYL, Table 3 Study II"}}, "note": "Structures can show the parent of a compound that is named as a salt. Where two headings read alike, the source gives them in different places."}
{"smiles": "Cn1cc[n+](C)c1", "note": "[Compound Ia]", "values": [{"measurement": "Heat stability", "setting": "[1]", "value": "unstable to heat"}]}
{"smiles": "CN(C)CCN(Cc1ccccc1)c1ccccn1", "note": "[TPL, TRIPELENNAMINE HCL, reference compound]", "values": [{"measurement": "24 hour penetration (total micrograms base)", "setting": "[2]", "value": 196, "unit": "micrograms base"}, {"measurement": "Increase in TPL penetration", "setting": "[2]", "value": 270, "unit": "%"}, {"measurement": "Penetration of TPL enhanced by", "setting": "[2]", "value": 1190, "unit": "%"}, {"measurement": "Skin irritation", "setting": "[3]; IPM at 0.5%", "value": "little or no skin irritation"}, {"measurement": "Skin irritation", "setting": "[3]; IPM levels sufficient to enhance transdermal penetration", "value": "generally are irritating to skin"}, {"measurement": "Increase in skin permeation of TPL", "setting": "[4]", "value": "approximately 3 fold"}, {"measurement": "24 hour penetration (total micrograms base)", "setting": "[4]; aqueous control: saturated TPL/H2O, buffered with NaOH to the same pH, Table 5", "value": 132, "unit": "micrograms base"}, {"measurement": "Increase in penetration relative to control", "setting": "[4]; multiple of average control determinations, saturated TPL/H2O + 0.5% IMI, Table 5", "value": 2.75}, {"measurement": "24 hour penetration (total micrograms base)", "setting": "[4]; saturated TPL/H2O + 0.5% IMI, Table 5", "value": 363, "unit": "micrograms base"}]}
{"smiles": "Cc1cc(C(C)(C)C)cc(C)c1CC1=NCCN1", "note": "[XYL, XYLO[…], HCL, reference compound]", "values": [{"measurement": "Penetration enhanced by imidazole", "setting": "[2]; 1% drug with 0.5% imidazole, Table 3 Studies V and VI", "value": 610, "unit": "%"}, {"measurement": "24 hour penetration (total micrograms base)", "setting": "[2]; [6]", "value": 613, "unit": "micrograms base"}, {"measurement": "24 hour penetration (total micrograms base)", "setting": "[2]; [7]", "value": 444, "unit": "micrograms base"}, {"measurement": "24 hour penetration (total micrograms base)", "setting": "[2]; [8]", "value": 1053, "unit": "micrograms base"}, {"measurement": "Penetration of XYL", "setting": "[2]; combination of TPL and XYL vs XYL alone, Table 3 Study I", "value": "remained fairly constant"}, {"measurement": "Increase in transdermal penetration", "setting": "[2]; combination of TRP and XYL, Table 3 Study II", "value": 90, "unit": "%"}, {"measurement": "24 hour penetration (total micrograms base)", "setting": "[2]; control: 1% of the drug alone in B, Table 3", "value": 100, "unit": "micrograms base"}, {"measurement": "24 hour penetration (total micrograms base)", "setting": "[2]; control: 5% of the drug alone in B, Table 3", "value": 544, "unit": "micrograms base"}, {"measurement": "Increase in penetration relative to control", "setting": "[2]; [6]", "value": 6.1}, {"measurement": "Increase in penetration relative to control", "setting": "[2]; [7]", "value": 0.8}, {"measurement": "Increase in penetration relative to control", "setting": "[2]; [8]", "value": 1.9}, {"measurement": "Imidazole enhanced xylometazoline penetration through human skin", "setting": "[5]; 2% XYL with 0.5% imidazole", "value": 5.3, "unit": "fold"}, {"measurement": "24 hour penetration (total micrograms base)", "setting": "[5]; B + 2% XYL + 0.5% IMI", "value": 203, "unit": "micrograms base"}, {"measurement": "24 hour penetration (total micrograms base)", "setting": "[5]; control: B + 2% XYL", "value": 38, "unit": "micrograms base"}, {"measurement": "Increase in penetration relative to control", "setting": "[5]; multiple of average control determination, B + 2% XYL + 0.5% IMI", "value": 5.3}]}
{"smiles": "Cn1ccn(C)c1=O", "note": "[compound IIa]", "values": [{"measurement": "Heat stability", "setting": "[1]", "value": "heat stable"}]}
